PMC3154012 (Journal of the American Chemical Society, 2011)

Experiments:
[1] = biological target: Mn-C1634 (thermostable chimeric P450 heme domain C1634); assay: optical absorbance titration, two-component binding fit; parameters: species or system Priestia megaterium; Bacillus subtilis; details: Mn(III)-PPIX in place of heme; PBS; 5 μM protein
[2] = biological target: T1, Mn-BM3h (wild-type cytochrome P450 BM3 heme domain) (Priestia megaterium, UniProt P14779); assay: optical absorbance titration; type: binding
T1 sequence (P14779 2-464 limits assumed): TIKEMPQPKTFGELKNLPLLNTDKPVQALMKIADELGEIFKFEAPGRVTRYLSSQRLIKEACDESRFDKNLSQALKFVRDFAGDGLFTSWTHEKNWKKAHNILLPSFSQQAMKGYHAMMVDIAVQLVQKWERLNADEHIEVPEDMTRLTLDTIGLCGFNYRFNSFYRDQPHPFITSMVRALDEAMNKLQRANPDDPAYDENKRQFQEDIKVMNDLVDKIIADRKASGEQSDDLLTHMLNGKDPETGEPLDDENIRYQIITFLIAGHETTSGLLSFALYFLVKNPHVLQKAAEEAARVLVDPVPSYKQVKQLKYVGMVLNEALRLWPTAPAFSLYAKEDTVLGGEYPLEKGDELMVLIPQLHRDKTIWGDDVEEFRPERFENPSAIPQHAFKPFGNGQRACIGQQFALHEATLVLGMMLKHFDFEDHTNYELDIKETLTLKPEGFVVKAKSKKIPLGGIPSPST

Work on `CCCCC/C=C\C/C=C\C/C=C\C/C=C\CCCC(=O)O` [AA, arachidonic acid] yielded a Kd [1] of 2500 ± 700 nM and a Kd [2] of 700 ± 500 nM.
